Where two headings read alike, the source gives them in different places.
Key:
KG-1a (wild-type MLL) = assay: Inhibition of proliferation of human tumor cells (Alamar Blue, 7 days), KG-1a control cell line; assay type: cell-based; conditions: 168 h, KG-1a cells (wild-type MLL, control cell line), method calls the value GI50
How it was run: (§1)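 Suspension cells were plated, dosed the same day with a graded compound series, and incubated seven days at 37°C under 5% CO2. Growth was then measured by Alamar Blue fluorescence, and the concentration halving proliferation (GI50) was calculated relative to Day 0 and Day 7 vehicle controls.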

Menin-MLL = biological target: T1, Menin-MLL (Homo sapiens, UniProt O00255); assay: Inhibitory activity against Menin-MLL binding (fluorescence polarization); conditions: 150 nM His-Menin, 15 nM FITC-MLL, 25°C for 60 min
T1 construct: His-Menin (M1-L615 end); purchased BIORTUS BP9210
T1 sequence (O00255 1-615 isoform O00255-1): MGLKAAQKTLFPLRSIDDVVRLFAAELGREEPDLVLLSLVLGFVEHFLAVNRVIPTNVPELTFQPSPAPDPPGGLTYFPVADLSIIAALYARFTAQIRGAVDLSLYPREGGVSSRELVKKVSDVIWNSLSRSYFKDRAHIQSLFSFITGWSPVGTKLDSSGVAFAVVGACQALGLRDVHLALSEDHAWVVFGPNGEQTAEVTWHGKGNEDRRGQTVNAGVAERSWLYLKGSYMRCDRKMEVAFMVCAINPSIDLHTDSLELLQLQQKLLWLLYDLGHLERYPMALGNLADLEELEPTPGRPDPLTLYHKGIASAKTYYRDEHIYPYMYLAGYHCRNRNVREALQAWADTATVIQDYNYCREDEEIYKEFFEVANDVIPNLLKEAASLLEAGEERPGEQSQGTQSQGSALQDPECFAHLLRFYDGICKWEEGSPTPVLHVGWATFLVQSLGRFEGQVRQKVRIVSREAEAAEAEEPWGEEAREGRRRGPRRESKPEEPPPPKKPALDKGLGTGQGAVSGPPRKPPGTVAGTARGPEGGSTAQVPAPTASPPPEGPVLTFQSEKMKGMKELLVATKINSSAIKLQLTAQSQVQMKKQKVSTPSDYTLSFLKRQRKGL
How it was run: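 Fluorescence polarization competition: compound and 150 nM His-tagged menin (residues M1-L615) sit 15 min at 25 °C in pH 7.5 HEPES buffer with NaCl, DTT and BSA; 15 nM FITC-labelled MLL peptide then binds for 60 min. IC50 fitted sigmoidally from mP values, duplicate wells.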

[1] = test system: MOLM-13 (carrying MLL-AF9); assay: Inhibition of proliferation of human tumor cells (Alamar Blue, 7 days), MOLM-13; assay type: cell-based; conditions: Homo sapiens, 168 h, MOLM-13 cells (carrying MLL-AF9), method calls the value GI50
How it was run: as §1

[2] = test system: MV-4-11 (carrying MLL-AF4); assay: Inhibition of proliferation of human tumor cells (Alamar Blue, 7 days), MV-4-11; assay type: cell-based; conditions: Homo sapiens, MV4-11, 168 h, MV-4-11 cells (carrying MLL-AF4), method calls the value GI50
How it was run: as §1

[3] = fluorescence polarization, read-out: Menin-MLL IC50

Compound	IC50 (KG-1a (wild-type MLL)) [nM]	IC50 (Menin-MLL; [3]) [nM]	IC50 [1] [nM]	IC50 [2] [nM]	IC50 (Menin-MLL; Menin-MLL IC50, fluorescence polarization) [nM]
CC(=O)N1CCC(CN2CC(c3cc(-c4ccc(F)cc4C(=O)N4[C@H](C)COC[C@H]4C)c4c(F)nc(C)n4c3)C2)CC1 [Example 205]	20000	10.3	19	7.4	–
CCS(=O)(=O)N[C@H]1CC[C@H](CN2CC(c3cc(-c4ccc(F)cc4C(=O)N4CCOC[C@H]4C)c4cnc(C)n4c3)C2)CC1 [Example 134, N-[(1r,4r)-4-{[3-(8-{4-fluoro-2-[(3R)-3-methylmorpholin-4-carbonyl]phenyl}-3-methylimidazo[1,5-a]pyridin-6-yl)azacyclobutan-1-yl]methyl}cyclohexyl]ethan-1-sulfonamide]	20000	–	21	26	17.5
Cc1nc(F)c2c(-c3ccc(F)cc3C(=O)N3CCOC[C@H]3C)cc(C3CN([C@H](CCCN4CCN(C)CC4)C(C)C)C3)cn12 [Example 275, (3R)-4-[5-fluoro-2-(1-fluoro-3-methyl-6-{1-[(3R)-2-methyl-6-(4-methylpiperazin-1-yl)hexan-3-yl]azacyclobutan-3-yl}imidazo[1,5-a]pyridin-8-yl)benzoyl]-3-methylmorpholine]	20000	3.2	9.4	2.6	–
Cc1nc(F)c2c(-c3ccc(F)cc3C(=O)N3CCOCC3C)cc(C3CN(C(CCCN4CCCC(O)C4)C(C)C)C3)cn12 (stereo not shown) [Example 292]	20000	4.5	13	2.4	–
COCCN(C)CCCC(C(C)C)N1CC(c2cc(-c3ccc(F)cc3C(=O)N3CCOCC3C)c3cnn(C)c3c2)C1 (stereo not shown) [Example 185]	20000	14.5	70	26	–
CC[C@@H](C1CCN(C(C)=O)CC1)N1CC(c2cc(-c3ccc(F)cc3C(=O)N3CCOC[C@H]3C)c3c(F)nc(C)n3c2)C1 [Example 280-1, 1-{4-[(1S)-1-[3-(1-fluoro-8-{4-fluoro-2-[(3R)-3-methylmorpholin-4-carbonyl]phenyl}-3-methylimidazo[1,5-a]pyridin-6-yl)azacyclobutan-1-yl]propyl]piperidin-1-yl}ethan-1-one]	–	15	27	6.9	–
CCN(C(=O)c1cc(F)ccc1-c1cc(C2CN([C@@H](C)C3CCN(C(=O)CO)CC3)C2)cn2c(C)nc(F)c12)C(C)C [Example 284-2]	–	2	6.8	1.5	–
CCN(C(=O)c1cc(F)ccc1-c1cc(C2CN(C[C@H]3CC[C@H](NS(=O)(=O)CC)CC3)C2)cn2c(C)nc(F)c12)C(C)C [Example 137]	–	6.5	10	4.7	–
CCN(C(=O)c1cc(F)ccc1-c1cc(C2CN([C@H](CCCN3C4COCC3C4)C(C)C)C2)cn2c(C)ncc12)C(C)C [Example 423]	–	1.7	2.7	1.2	–

More lines, main results first:

IC50 (KG-1a (wild-type MLL)) [nM]	IC50 (Menin-MLL; [3]) [nM]	IC50 [1] [nM]	IC50 [2] [nM]	Compound	IC50 (Menin-MLL; Menin-MLL IC50, fluorescence polarization) [nM]
20000	8	12	3.4	CO[C@@H]1CCCN(CCC[C@H](C(C)C)N2CC(c3cc(-c4ccc(F)cc4C(=O)N4CCOC[C@H]4C)c4c(F)nc(C)n4c3)C2)C1 [Example 305]	–
–	2.5	7.3	1.1	Cc1nc(F)c2c(-c3ccc(F)cc3C(=O)N3CCOC[C@H]3C)cc(C3CN([C@H](CCCN4CCC(F)CC4)C(C)C)C3)cn12 [Example 314]	–
–	2.8	5.3	0.91	CCN(C(=O)c1cc(F)ccc1-c1cc(C2CN([C@H](CCCN3CCN(C)CC3)C(C)C)C2)cn2c(C)nc(F)c12)C(C)C [Example 312-2]	–
11500	1.8	2.5	0.4	CCN(C(=O)c1cc(F)ccc1-c1cc(C2CN([C@H](CCCN3C[C@H]4C[C@@H]3CO4)C(C)C)C2)cn2c(C)ncc12)C(C)C [Example 379, N-ethyl-5-fluoro-2-(3-methyl-6-{1-[(3R)-2-methyl-6-[(1R,4R)-2-oxa-5-azabicyclo[2.2.1]heptan-5-yl]hexan-3-yl]azacyclobutan-3-yl}imidazo[1,5-a]pyridin-8-yl)-N-(isopropyl)benzamide]	–
–	2.5	9.2	1.3	CCN1CCN(CCC[C@H](C(C)C)N2CC(c3cc(-c4ccc(F)cc4C(=O)N4CCOC[C@H]4C)c4cnc(C)n4c3)C2)CC1 [Example 324-2]	–
–	3.9	15	4.7	CCN(C(=O)c1cc(F)ccc1-c1cc(C2CN([C@H](CN3CCN(CCO)CC3)C(C)C)C2)cn2c(C)ncc12)C(C)C [Example 431, N-ethyl-5-fluoro-2-(6-{1-[(2S)-1-[4-(2-hydroxylethyl)piperazin-1-yl]-3-methylbutan-2-yl]azacyclobutan-3-yl}-3methylimidazo[1,5-a]pyridin-8-yl)-N-(isopropyl)benzamide]	–
–	3.8	17	2.6	Cc1nc(F)c2c(-c3ccc(F)cc3C(=O)N3CCOC[C@H]3C)cc(C3CN([C@H](CO[C@H]4CCCN(C)C4)C(C)C)C3)cn12 [Example 321-2, (3R)-4-[5-fluoro-2-(1-fluoro-3-methyl-6-{1-[(2S)-3-methyl-1-{[(3S)-1-methylpiperidin-3-yl]oxy}butan-2-yl]azacyclobutan-3-yl}imidazo[1,5-a]pyridin-8yl)benzoyl]-3-methylmorpholine]	–
–	3.6	6.2	0.97	CCN(C(=O)c1cc(F)ccc1-c1cc(C2CN([C@H](CCCN3CCN(C)CC3)C(C)C)C2)cn2c(C)ncc12)C(C)C [Example 310-2, N-ethyl-5-fluoro-2-(3-methyl-6-{1-[(3R)-2-methyl-6-(4-methylpiperazin-1-yl)hexan-3-yl]azacyclobutan-3-yl}imidazo[1,5-a]pyridin-8-yl)-N-(isopropyl)benzamide]	–
–	8.5	26	4.7	CCN(C(=O)c1cc(F)ccc1-c1cc(C2CN([C@H](CCCN3CCN(C(C)=O)CC3)C(C)C)C2)cn2c(C)ncc12)C(C)C [Example 311-2, 2-(6-{1-[(3R)-6-(4-acetylpiperazin-1-yl)-2-methylhexan-3-yl]azacyclobutan-3-yl}-3-methylimidazo[1,5-a]pyridin-8-yl)-N-ethyl-5-fluoro-N-(isopropyl)benzamide]	–
> 20000	4.8	5.3	–	Cc1nc(F)c2c(-c3ccc(F)cc3C(=O)N3CCOC[C@H]3C)cc(C3CN(C(CC[C@@H]4COCCN4)C(C)C)C3)cn12 (stereo partly drawn) [Example 371, (3R)-4-{5-fluoro-2-[1-fluoro-3-methyl-6-(1-{4-methyl-1-[(3R)-morpholin-3-yl]pentan-3-yl}azacyclobutan-3-yl)imidazo[1,5-a]pyridin-8-yl]benzoyl}-3-methylmorpholine]	–
12000	3.3	4.6	–	Cc1nc(F)c2c(-c3ccc(F)cc3C(=O)N3CCOC[C@H]3C)cc(C3CN([C@H](CCCN4CCN(C5CC5)CC4)C(C)C)C3)cn12 [Example 350]	–
–	10.8	36	12	Cc1nc(F)c2c(-c3ccc(F)cc3C(=O)N3CCOC[C@H]3C)cc(C3CN([C@H](CO[C@@H]4CCCN(C)C4)C(C)C)C3)cn12 [Example 297-1, (3R)-4-[5-fluoro-2-(1-fluoro-3-methyl-6-{1-[(2S)-3-methyl-1-{[(3R)-1-methylpiperidin-3-yl]oxy}butan-2-yl]azacyclobutan-3-yl}imidazo[1,5-a]pyridin-8yl)benzoyl]-3-methylmorpholine]	–
–	2.7	15	2.4	Cc1ncc2c(-c3ccc(F)cc3C(=O)N3CCOC[C@H]3C)cc(C3CN([C@H](CCCN4CCN(C)CC4)C(C)C)C3)cn12 [Example 323-2, (3R)-4-[5-fluoro-2-(3-methyl-6-{1-[(3R)-2-methyl-6-(4-methylpiperazin-1-yl)hexan-3-yl]azacyclobutan-3-yl}imidazo[1,5-a]pyridin-8-yl)benzoyl]-3-methylmorpholine]	–

Reference: patent publication EP4782453A1 (Beyang Therapeutics Co., Ltd., priority 2023, dated 2025)
